Experimental data reported in patent publication US12404345B2, “Humanized antibodies against iRHOM2” (SCIRHOM GMBH, priority 2021, dated 2025).

Tested on: PMA-induced release of endogenous TGFα from human PC3 prostate cancer cells
Test: ELISA-based TGFα release assay, PMA-induced, PC3 cells
Type: cell-based
Settings: PC-3, Batimastat 10 μM, PMA 25 ng/ml, 2 hours
Description: In the following study, ELISA-based TGFα release assays were performed to analyze the inhibitory effects of the antibodies of the invention on PMA-induced release of endogenous TGFα from human PC3 prostate cancer cells.
In brief, on day 1, Nunc black MaxiSorp® 96-well plates (Thermo Fisher Scientific, USA) were coated overnight with 100 μl per well of goat anti-human TGFα capture antibody (provided as part of the DuoSet ELISA kit) at 0.4 μg/ml TBS at 4° C. 80,000 PC3 (European Collection of Authenticated Cell Cultures, UK) cells in 100 μl of normal growth medium were seeded in each well of F-bottom 96-well cell culture plates (Corning, USA) and incubated at 37° C., 5% CO2 overnight. On day 2, the capture antibody solution was removed and MaxiSorp® plates were blocked with 300 μl per well of TBS, 1% BSA at room temperature for 1-2 hours. […] Using an infinite M1000 (Tecan Group, Switzerland) microplate reader, the fluorescence of each well was collected at an excitation wavelength of 435 nm and an emission wavelength of 555 nm.

CNC(=O)[C@H](Cc1ccccc1)NC(=O)[C@H](CC(C)C)[C@H](CSc1cccs1)C(=O)NO [Batimastat]
inhibition at 10 µM: 90.7%
